What was measured:
[1] = target: Prostaglandin G/H synthase 1 (Homo sapiens, UniProt P23219); assay: Inhibition of COX1 by microplate reader
[2] = target: T1, Prostaglandin G/H synthase 2 (Homo sapiens, UniProt P35354); assay: Inhibition of COX2 by microplate reader
T1 sequence (P35354 whole entry): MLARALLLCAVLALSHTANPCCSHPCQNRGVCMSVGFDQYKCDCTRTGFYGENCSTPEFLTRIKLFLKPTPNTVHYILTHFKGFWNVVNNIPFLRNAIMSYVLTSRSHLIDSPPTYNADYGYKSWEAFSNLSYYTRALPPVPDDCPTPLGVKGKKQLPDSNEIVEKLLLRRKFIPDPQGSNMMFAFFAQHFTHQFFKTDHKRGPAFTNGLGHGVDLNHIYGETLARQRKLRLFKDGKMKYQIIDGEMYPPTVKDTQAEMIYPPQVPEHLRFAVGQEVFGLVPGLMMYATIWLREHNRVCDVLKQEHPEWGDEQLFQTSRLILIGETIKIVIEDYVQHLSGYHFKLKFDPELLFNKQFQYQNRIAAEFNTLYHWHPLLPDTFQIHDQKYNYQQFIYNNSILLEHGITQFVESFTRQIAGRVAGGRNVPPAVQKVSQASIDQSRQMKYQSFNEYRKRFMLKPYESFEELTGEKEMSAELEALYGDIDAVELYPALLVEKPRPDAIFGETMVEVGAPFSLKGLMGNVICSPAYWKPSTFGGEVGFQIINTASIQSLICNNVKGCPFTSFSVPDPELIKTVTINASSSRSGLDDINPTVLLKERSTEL

Sequence of Prostaglandin G/H synthase 1 (P23219 whole entry): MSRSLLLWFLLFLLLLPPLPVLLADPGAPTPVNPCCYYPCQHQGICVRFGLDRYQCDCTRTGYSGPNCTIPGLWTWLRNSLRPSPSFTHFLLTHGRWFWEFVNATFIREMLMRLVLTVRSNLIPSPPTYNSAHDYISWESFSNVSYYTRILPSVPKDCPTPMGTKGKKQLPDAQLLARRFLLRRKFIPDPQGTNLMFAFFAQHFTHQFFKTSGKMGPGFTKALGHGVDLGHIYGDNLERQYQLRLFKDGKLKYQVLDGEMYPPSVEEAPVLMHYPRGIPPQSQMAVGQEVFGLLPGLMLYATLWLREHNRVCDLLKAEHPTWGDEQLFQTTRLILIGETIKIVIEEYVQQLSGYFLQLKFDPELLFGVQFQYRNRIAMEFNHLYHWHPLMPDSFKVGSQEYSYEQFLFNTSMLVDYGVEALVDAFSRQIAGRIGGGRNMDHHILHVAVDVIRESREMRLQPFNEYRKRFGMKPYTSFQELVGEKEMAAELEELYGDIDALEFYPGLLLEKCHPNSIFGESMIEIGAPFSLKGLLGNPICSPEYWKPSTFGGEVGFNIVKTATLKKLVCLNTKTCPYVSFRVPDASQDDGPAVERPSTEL

IC50 [1] [µM]	IC50 [2] [µM]	SMILES
> 50	> 50	C[C@@H]1O[C@@H](O[C@H]2[C@H](O)[C@@H](O)[C@H](OC[C@H]3O[C@@H](OC(=O)[C@]45CCC(C)(C)C[C@H]4C4=CC[C@@H]6[C@@]7(C)CC[C@H](O)[C@@](C)(CO)[C@@H]7CC[C@@]6(C)[C@]4(C)CC5)[C@H](O)[C@@H](O)[C@@H]3O)O[C@@H]2CO)[C@H](O)[C@H](O)[C@H]1O [KIZUTA CIRENSENOSIDE O SAPONIN K3]
> 50	> 50	C[C@@H]1O[C@@H](O[C@H]2[C@H](O)[C@@H](O)[C@H](OC[C@H]3O[C@@H](OC(=O)[C@]45CCC(C)(C)C[C@H]4C4=CC[C@@H]6[C@@]7(C)CC[C@H](O[C@@H]8OC[C@H](O)[C@H](O)[C@H]8O[C@@H]8O[C@@H](C)[C@H](O)[C@@H](O[C@@H]9OC[C@@H](O)[C@@H](O)[C@H]9O)[C@H]8O)[C@@](C)(CO)[C@@H]7CC[C@@]6(C)[C@]4(C)CC5)[C@H](O)[C@@H](O)[C@@H]3O)O[C@@H]2CO)[C@H](O)[C@H](O)[C@H]1O [HUZHANGOSIDE D]
8.8	9	COc1ccc(/C=C/C(=O)O[C@H]2[C@H](O[C@H]3[C@H](O)[C@@H](O)[C@H](O[C@@H]4CO[C@@H](O[C@@H]5[C@@H](O)[C@H](C)O[C@@H](O[C@H]6[C@H](O[C@H]7CC[C@@]8(C)[C@@H](CC[C@]9(C)[C@@H]8CC=C8[C@@H]%10CC(C)(C)CC[C@]%10(C(=O)O[C@@H]%10O[C@H](CO[C@@H]%11O[C@H](CO)[C@@H](O[C@@H]%12O[C@@H](C)[C@H](O)[C@@H](O)[C@H]%12O)[C@H](O)[C@H]%11O)[C@@H](O)[C@H](O)[C@H]%10O)CC[C@]89C)[C@]7(C)CO)OC[C@H](O)[C@@H]6O)[C@@H]5O)[C@H](O)[C@@H]4O)O[C@@H]3CO)O[C@H](CO)[C@@H](O)[C@@H]2O[C@@H]2O[C@H](CO[C@@H]3O[C@@H](C)[C@H](O)[C@@H](O)[C@H]3O)[C@@H](O)[C@H](O)[C@H]2O)cc1O [CLEMATERNOSIDE D]
> 50	> 50	C[C@@H]1O[C@@H](O[C@H]2[C@H](O)[C@@H](O)[C@H](OC[C@H]3O[C@@H](OC(=O)[C@]45CCC(C)(C)C[C@H]4C4=CC[C@@H]6[C@@]7(C)CC[C@H](O[C@@H]8OC[C@H](O)[C@H](O)[C@H]8O[C@@H]8O[C@@H](C)[C@H](O)[C@@H](O[C@@H]9OC[C@@H](O[C@@H]%10O[C@H](CO)[C@@H](O[C@@H]%11O[C@H](CO)[C@@H](O)[C@H](O)[C@H]%11O)[C@H](O)[C@H]%10O)[C@@H](O)[C@H]9O)[C@H]8O)[C@@](C)(CO)[C@@H]7CC[C@@]6(C)[C@]4(C)CC5)[C@H](O)[C@@H](O)[C@@H]3O)O[C@@H]2CO)[C@H](O)[C@H](O)[C@H]1O
8.3	8.5	COc1ccc(/C=C/C(=O)O[C@H]2[C@H](O[C@H]3[C@H](O)[C@@H](O)[C@H](O[C@@H]4CO[C@@H](O[C@@H]5[C@@H](O)[C@H](C)O[C@@H](O[C@H]6[C@H](O[C@H]7CC[C@]8(C)[C@H]9CC=C%10[C@@H]%11CC(C)(C)CC[C@]%11(C(=O)O[C@@H]%11O[C@H](CO[C@@H]%12O[C@H](CO)[C@@H](O[C@@H]%13O[C@@H](C)[C@H](O)[C@@H](O)[C@H]%13O)[C@H](O)[C@H]%12O)[C@@H](O)[C@H](O)[C@H]%11O)CC[C@@]%10(C)[C@]9(C)CC[C@H]8C7(C)C)OC[C@H](O)[C@@H]6O)[C@@H]5O)[C@H](O)[C@@H]4O)O[C@@H]3CO)O[C@H](CO)[C@@H](O)[C@@H]2O[C@@H]2O[C@H](CO[C@@H]3O[C@@H](C)[C@H](O)[C@@H](O)[C@H]3O)[C@@H](O)[C@H](O)[C@H]2O)cc1O [CLEMATERNOSIDE E]
> 50	> 50	C[C@@H]1O[C@@H](O[C@H]2[C@H](O[C@H]3CC[C@]4(C)[C@H]5CC=C6[C@@H]7CC(C)(C)CC[C@]7(C(=O)O[C@@H]7O[C@H](CO[C@@H]8O[C@H](CO)[C@@H](O[C@@H]9O[C@@H](C)[C@H](O)[C@@H](O)[C@H]9O)[C@H](O)[C@H]8O)[C@@H](O)[C@H](O)[C@H]7O)CC[C@@]6(C)[C@]5(C)CC[C@H]4C3(C)CO)OC[C@H](O)[C@@H]2O)[C@H](O)[C@H](O)[C@H]1O (some centres undefined) [KIZUTA SAPONIN K12]
7.5	8.9	COc1ccc(/C=C/C(=O)O[C@H]2[C@H](O[C@H]3[C@H](O)[C@@H](O)[C@H](O[C@@H]4CO[C@@H](O[C@@H]5[C@@H](O)[C@H](C)O[C@@H](O[C@H]6[C@H](O[C@H]7CC[C@@]8(C)[C@@H](CC[C@]9(C)[C@@H]8CC=C8[C@@H]%10CC(C)(C)CC[C@]%10(C(=O)O[C@@H]%10O[C@H](CO[C@@H]%11O[C@H](CO)[C@@H](O[C@@H]%12O[C@@H](C)[C@H](O)[C@@H](O)[C@H]%12O)[C@H](O)[C@H]%11O)[C@@H](O)[C@H](O)[C@H]%10O)CC[C@]89C)[C@]7(C)CO)OC[C@@H](O)[C@@H]6O)[C@@H]5O)[C@H](O)[C@@H]4O)O[C@@H]3CO)O[C@H](CO)[C@@H](O)[C@@H]2O[C@@H]2O[C@H](CO)[C@@H](O)[C@H](O)[C@H]2O)cc1O [CLEMATOCHINENOSIDE G]
8.8	7.8	COc1ccc(/C=C/C(=O)O[C@@H]2[C@@H](O)[C@H](O[C@H]3[C@H](O)[C@@H](O)[C@H](O[C@@H]4CO[C@@H](O[C@@H]5[C@@H](O)[C@H](C)O[C@@H](O[C@H]6[C@H](O[C@H]7CC[C@@]8(C)[C@@H](CC[C@]9(C)[C@@H]8CC=C8[C@@H]%10CC(C)(C)CC[C@]%10(C(=O)O[C@@H]%10O[C@H](CO[C@@H]%11O[C@H](CO)[C@@H](O[C@@H]%12O[C@@H](C)[C@H](O)[C@@H](O)[C@H]%12O)[C@H](O)[C@H]%11O)[C@@H](O)[C@H](O)[C@H]%10O)CC[C@]89C)[C@]7(C)CO)OC[C@@H](O)[C@@H]6O)[C@@H]5O)[C@H](O)[C@@H]4O)O[C@@H]3CO)O[C@H](CO)[C@H]2O)cc1O [CLEMATOCHINENOSIDE D]
7.8	7.2	COc1ccc(/C=C/C(=O)OC[C@H]2O[C@@H](O[C@H]3[C@H](O)[C@@H](O)[C@H](O[C@@H]4CO[C@@H](O[C@@H]5[C@@H](O)[C@H](C)O[C@@H](O[C@H]6[C@H](O[C@H]7CC[C@]8(C)[C@H]9CC=C%10[C@@H]%11CC(C)(C)CC[C@]%11(C(=O)O[C@@H]%11O[C@H](CO[C@@H]%12O[C@H](CO)[C@@H](O[C@@H]%13O[C@@H](C)[C@H](O)[C@@H](O)[C@H]%13O)[C@H](O)[C@H]%12O)[C@@H](O)[C@H](O)[C@H]%11O)CC[C@@]%10(C)[C@]9(C)CC[C@H]8C7(C)C)OC[C@@H](O)[C@@H]6O)[C@@H]5O)[C@H](O)[C@@H]4O)O[C@@H]3CO)[C@H](O)[C@@H](O)[C@@H]2O)cc1O [CLEMATOCHINENOSIDE F]
> 50	> 50	C[C@@H]1O[C@@H](O[C@H]2[C@H](O)[C@@H](O)[C@H](OC[C@H]3O[C@@H](OC(=O)[C@]45CCC(C)(C)C[C@H]4C4=CC[C@@H]6[C@@]7(C)CC[C@H](O[C@@H]8OC[C@H](O)[C@H](O)[C@H]8O[C@@H]8O[C@@H](C)[C@H](O)[C@@H](O[C@@H]9OC[C@@H](O[C@@H]%10O[C@H](CO)[C@@H](O)[C@H](O)[C@H]%10O)[C@@H](O)[C@H]9O)[C@H]8O)C(C)(C)[C@@H]7CC[C@@]6(C)[C@]4(C)CC5)[C@H](O)[C@@H](O)[C@@H]3O)O[C@@H]2CO)[C@H](O)[C@H](O)[C@H]1O [CLEMATICHINENOSIDE C]
6.3	6.1	COc1ccc(/C=C/C(=O)O[C@H]2[C@H](O[C@H]3[C@H](O)[C@@H](O)[C@H](O[C@@H]4CO[C@@H](O[C@@H]5[C@@H](O)[C@H](C)O[C@@H](O[C@H]6[C@H](O[C@H]7CC[C@@]8(C)[C@@H](CC[C@]9(C)[C@@H]8CC=C8[C@@H]%10CC(C)(C)CC[C@]%10(C(=O)O[C@@H]%10O[C@H](CO[C@@H]%11O[C@H](CO)[C@@H](O[C@@H]%12O[C@@H](C)[C@H](O)[C@@H](O)[C@H]%12O)[C@H](O)[C@H]%11O)[C@@H](O)[C@H](O)[C@H]%10O)CC[C@]89C)[C@]7(C)CO)OC[C@@H](O)[C@@H]6O)[C@@H]5O)[C@H](O)[C@@H]4O)O[C@@H]3CO)O[C@H](CO)[C@@H](O)[C@@H]2O[C@@H]2O[C@H](CO[C@@H]3O[C@@H](C)[C@H](O)[C@@H](O)[C@H]3O)[C@@H](O[C@@H]3O[C@H](CO)[C@@H](O)[C@H](O)[C@H]3O)[C@H](O)[C@H]2O)cc1O [CLEMATOCHINENOSIDE C]
7.8	6.7	COc1ccc(/C=C/C(=O)O[C@H]2[C@H](O[C@H]3[C@H](O)[C@@H](O)[C@H](O[C@@H]4CO[C@@H](O[C@@H]5[C@@H](O)[C@H](C)O[C@@H](O[C@H]6[C@H](O[C@H]7CC[C@@]8(C)[C@@H](CC[C@]9(C)[C@@H]8CC=C8[C@@H]%10CC(C)(C)CC[C@]%10(C(=O)O[C@@H]%10O[C@H](CO[C@@H]%11O[C@H](CO)[C@@H](O[C@@H]%12O[C@@H](C)[C@H](O)[C@@H](O)[C@H]%12O)[C@H](O)[C@H]%11O)[C@@H](O)[C@H](O)[C@H]%10O)CC[C@]89C)[C@]7(C)CO)OC[C@@H](O)[C@@H]6O)[C@@H]5O)[C@H](O)[C@@H]4O)O[C@@H]3CO)O[C@H](CO)[C@@H](O)[C@@H]2O[C@@H]2O[C@H](CO[C@@H]3O[C@@H](C)[C@H](O)[C@@H](O)[C@H]3O[C@@H]3O[C@H](CO)[C@@H](O)[C@H](O)[C@H]3O)[C@@H](O)[C@H](O)[C@H]2O)cc1O [CLEMATOCHINENOSIDE A]
